Measurements as given in patent US9096607B2, “Tumor necrosis factor inhibitors” (THE TRUSTEES OF THE UNIVERSITY OF PENNSYLVANIA, priority 2005, dated 2015).

Test system: TNF-α signaling in THP1 cells
Assay: Inhibition of TNF-α signaling in THP1 cells (western blot)
Assay type: cell-based, Human
Conditions: 2 hr pretreatment
Procedure: THP1 cells (Human acute monocytic leukemia cell line, American Type Culture Collection, Manassas, Va.) were cultured in RPMI with the supplement of 50 mM HEPES, 1 mM Na Pyruvate, 50 μM of 2-ME, 2.5 mg/mL of glucose, […] of gentamicin and 10% of FBS. Cells were cultured in 12-well plate at a density of 6×10^5/well with supplement of 100 ng/mL PMA. Cells were plated 72 hrs to differentiate. Cells were then pretreated with or without small molecule for 2 hr, followed by treatment with TNF-α at 20 ng/mL at the indicated periods. Cells were then lysed and analyzed by western blotting in the same manner as described above for L929 cells.

Structure (SMILES): CC(=O)Oc1ccc(C(C)(c2ccc(OC(C)=O)cc2)c2ccc(OC(C)=O)cc2)cc1 [Compound I-9, 1,1,1-Tris-(4-acetoxyphenyl)ethane]
- TNF-α mediated I-kBα phosphorylation: inhibited
- TNF-α mediated p38 phosphorylation: inhibited
